Assays:
CCRF-CEM [1] = experiment: Maximum protection of CEM cells by the compound against HIV-1; No protection; type: functional, cell-based; conditions: Homo sapiens
[2] = Therapeutic index expressed as the ratio of CC50 and EC50; No therapeutic benifit reached; type: cell-based; conditions: human, ccrf-cem
CCRF-CEM [3] = experiment: Anti HIV-1 activity expressed as the concentration required to protect of HIV-1 infected CEM cells; type: functional, cell-based; conditions: Homo sapiens
CCRF-CEM [4] = experiment: Cytotoxic concentration against uninfected CEM cells; type: functional; conditions: Homo sapiens
[5] = molecular target: T1, Human immunodeficiency virus type 1 integrase (Human immunodeficiency virus 1, UniProt Q7ZJM1)
T1 sequence (Q7ZJM1 whole entry): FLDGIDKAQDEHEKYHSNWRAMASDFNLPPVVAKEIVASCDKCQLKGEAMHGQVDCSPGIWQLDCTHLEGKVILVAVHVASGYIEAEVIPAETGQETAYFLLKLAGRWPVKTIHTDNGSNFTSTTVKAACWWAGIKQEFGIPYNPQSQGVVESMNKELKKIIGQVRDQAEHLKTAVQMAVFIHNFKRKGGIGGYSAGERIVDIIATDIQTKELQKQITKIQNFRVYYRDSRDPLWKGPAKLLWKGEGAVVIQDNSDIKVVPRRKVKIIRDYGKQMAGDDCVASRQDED

[6] = molecular target: T1, Human immunodeficiency virus type 1 integrase; remark: listed apart in the source
Description: Inhibition of HIV-1 integrase catalytic activity

CCRF-CEM [7] = experiment: Maximum protection of CEM cells by the compound against HIV-1 at a dose of 20 uM; type: functional, Homo sapiens
[8] = Therapeutic index expressed as the ratio of CC50 and EC50; type: cell-based; conditions: human, CCRF-CEM cells; read-out: Therapeutic index
CCRF-CEM [9] = experiment: Maximum protection of CEM cells by the compound against HIV-1 at a dose of 2 uM; type: functional, Homo sapiens
[10] = molecular target: T1, Human immunodeficiency virus type 1 integrase; experiment: Evaluated for inhibition of HIV-1 integrase catalytic activity in terms of inhibition of 3'-processing; type: functional
CCRF-CEM [11] = experiment: Maximum protection of CEM cells by the compound against HIV-1 at a dose of 2 uM; No protection; type: functional, cell-based; conditions: Homo sapiens
CCRF-CEM [12] = experiment: Maximum protection of CEM cells by the compound against HIV-1 at a dose of 0.2 uM; type: functional, Homo sapiens
CCRF-CEM [13] = experiment: Maximum protection of CEM cells by the compound against HIV-1 at a dose of 63 uM; type: functional, Homo sapiens

Row | EC50 (CCRF-CEM [3]) | IC50 [5] | IC50 [6] | IC50 [10] | Structure (SMILES) | Max protection (CCRF-CEM [1]) | Therapeutic index [2] | CC50 (CCRF-CEM [4]) | Max protection (CCRF-CEM [7]) | selectivity ratio [8] | Max protection (CCRF-CEM [9]) | Max protection (CCRF-CEM [11]) | Max protection (CCRF-CEM [12]) | Max protection (CCRF-CEM [13])
1 | > 200 µM | 1.7 µM | 1.9 µM | – | O=C(O)C(=O)/C=C(\O)c1cccc(OCc2ccc(COc3cccc(/C(O)=C/C(=O)C(=O)O)c3)cc2)c1 | No protection | No therapeutic benefit | > 200 µM | – | – | – | – | – | –
2 | 16 µM | 32 µM | 2.7 µM | – | O=C(/C=C(\O)c1cccc(Cc2ccccc2F)c1)C(=O)NCCCCCCNC(=O)C(=O)/C=C(\O)c1cccc(Cc2ccccc2F)c1 | – | – | 124 µM | 86% | 8 | – | – | – | –
3 | 0.8 µM | – | 0.3 µM | 2.5 µM | O=C(/C=C(\O)c1cccc(Cc2ccccc2F)c1)C(=O)N1CCN(C(=O)C(=O)/C=C(\O)c2cccc(Cc3ccccc3F)c2)CC1 | – | – | 11 µM | – | 14 | 100% | – | – | –
4 | > 5 µM | 5.8 µM | 0.2 µM | – | O=C(/C=C(\O)c1cccc(Cc2ccccc2F)c1)C(=O)NCCNC(=O)C(=O)/C=C(\O)c1cccc(Cc2ccccc2F)c1 | – | No therapeutic benefit | 5 µM | – | – | – | No protection | – | –
5 | 0.02 µM | 2.5 µM | 0.4 µM | – | O=C(O)C(=O)/C=C(\O)c1cccc(Cc2ccccc2F)c1 | – | – | 62 µM | – | 3110 | – | – | 98% | –
6 | > 9 µM | 5.3 µM | 0.2 µM | – | O=C(/C=C(\O)c1cccc(Cc2ccccc2F)c1)C(=O)NCCCNC(=O)C(=O)/C=C(\O)c1cccc(Cc2ccccc2F)c1 | No protection | No therapeutic benefit | 9 µM | – | – | – | – | – | –
7 | > 12 µM | 4.8 µM | 0.7 µM | – | O=C(/C=C(\O)c1cccc(Cc2ccccc2F)c1)C(=O)NCCCCCNC(=O)C(=O)/C=C(\O)c1cccc(Cc2ccccc2F)c1 | No protection | No therapeutic benefit | 12 µM | – | – | – | – | – | –

Row | Structure (SMILES) | EC50 (CCRF-CEM [3]) | IC50 [5] | IC50 [6] | IC50 [10] | Max protection (CCRF-CEM [1]) | Therapeutic index [2] | CC50 (CCRF-CEM [4]) | Max protection (CCRF-CEM [7]) | selectivity ratio [8] | Max protection (CCRF-CEM [9]) | Max protection (CCRF-CEM [11]) | Max protection (CCRF-CEM [12]) | Max protection (CCRF-CEM [13])
8 | O=C(O)C(=O)/C=C(\O)c1cccc(OCc2cccc(COc3cccc(/C(O)=C/C(=O)C(=O)O)c3)c2)c1 | > 200 µM | 7.3 µM | – | – | No protection | – | > 200 µM | – | – | – | – | – | –
9 | O=C(O)C(=O)/C=C(\O)c1cccc(OCc2ccccc2COc2cccc(/C(O)=C/C(=O)C(=O)O)c2)c1 | 39 µM | – | – | – | – | – | > 200 µM | – | – | – | – | – | 97%
10 | O=C(O)C(=O)/C=C(\O)c1cccc(C(c2cccc(/C(O)=C/C(=O)C(=O)O)c2)c2ccccc2F)c1 (configuration not stated) | 17 µM | – | – | – | – | – | 81 µM | 88% | – | – | – | – | –
